Measurements as given in patent US20070093520A1, “Method of treatment of diarrhea-predominant irritable bowel syndrome in a subject” (priority 2005, published 2007).
Read-outs that look alike come from different tables or passages of the source.

Tested on: diarrhea-predominant IBS subjects
Format: in vivo, human
Conditions: for Number of subjects who died / Primary reason for withdrawal: Adverse event and lack of efficacy / Primary reason for withdrawal: Baseline complaint/adverse event: 2 mg TID
Experimental: The study was performed in approximately 150 study centers. Approximately 1600 eligible subjects were to be given cilansetron 2 mg TID. At Visit 1, pre-treatment assessments were conducted. […] Subjects were to return to the study site one month later for Visit 3 (Day 31) for their first interim assessment. […] All subjects who discontinued from the study were to have the same post-study assessments required at Visit 7 performed at their early termination visit. […]
Stool specimens were analyzed at every visit for occult blood. An independent GERB had been established to provide advice on GI AEs during the course of the study.
Adverse events were assessed at Baseline, at each clinic visit, and at the end of the study (Month 12 or the early termination visit). All AEs, which occurred during the study were followed up in accordance with good medical practice until resolved or judged no longer clinically significant, or if a condition was chronic, until fully characterized. Adverse events could occur in the specified follow-up period and, regardless of the interval since the last administration of the study medication, were treated in the same manner as an AE which occurred during the treatment with study medication. Each AE was evaluated for duration, severity, seriousness, and causal relationship to the investigational drug. The action taken and the outcome were also recorded.
Specifically, subjects who were lost to follow-up and had no post-Baseline contact with the site were excluded from the Safety population. The subjects who discontinued from the study due to lost to follow-up were identified based on the information collected on the study termination CRF page.
After the pretreatment assessment at Visit 1 (Days […] to −3), subjects were to return to the study site for a Baseline assessment and start the treatment at Visit 2 (Day 1).
For the by time-interval analyses of disposition, prevalence of AEs, and of markedly abnormal and predefined changes in laboratory values, vital signs, and ECGs, the following interval windows were used:
Adverse events that were already present prior to the first dose of cilansetron study medication but increased in severity afterwards were considered as treatment-emergent.
The 5% cutoff point was based on the incidence within higher level terms.
Subjects were counted at most once for each primary system organ class and preferred term. Serious AEs that resolved prior to receiving study medication or occurred more than 30 days after the last dose of study medication were not included in the incidence tables. A listing of all SAEs is presented; SAEs with onset prior to receiving study medication or more than 30 days after discontinuation of study medication were flagged. The listing presents lower level term and preferred term of the SAE, severity, action taken, outcome, and relationship of the SAE, start and stop date of the SAE, study day of onset of the SAE, age, race, and sex.

[1] = Cilansetron 2 mg, N=1454, % of appropriate gender
[2] = Study 3008, 2 mg TID (N = 1454)
[3] = Study 3008, of subjects who received study medication
[4] = TEAE incidence, 2 mg, Safety Population, HLT

In the case of `Cc1nccn1C[C@H]1CCc2c(c3cccc4c3n2CCC4)C1=O` [cilansetron, (R)-(−)-4,5,6,8,9,10-hexahydro-10-[(2-methyl-1H-imidazol-1-yl)methyl]-11H-pyrido-[3,2,1-jk]-carbazol-11-one], the “TEAE incidence: Transient Cerebrovascular Events” value (Cilansetron 2 mg, N=1454) is reported as 1 (<1%) n (%), the “TEAE incidence: Transient Global Amnesia” value (Cilansetron 2 mg, N=1454) is reported as 1 (<1%) n (%) and the “TEAE incidence: Transient Ischaemic Attack” value (Cilansetron 2 mg, N=1454) is reported as 1 (<1%) n (%). The “TEAE incidence: Tremor” value (Cilansetron 2 mg, N=1454) was 2 (<1%) n (%), the “TEAE incidence: Tremor (Excl Congenital)” value (Cilansetron 2 mg, N=1454) was 2 (<1%) n (%) and the “TEAE incidence: Triglyceride Analyses” value (Cilansetron 2 mg, N=1454) was 11 (<1%) n (%). For the same compound, the “TEAE incidence: Urethritis Non-Specific” value (Cilansetron 2 mg, N=1454) was 1 (<1%) n (%), the “TEAE incidence: Urinalysis NEC” value (Cilansetron 2 mg, N=1454) was 20 (1%) n (%) and the “TEAE incidence: Urine Bilirubin Increased” value (Cilansetron 2 mg, N=1454) was 2 (<1%) n (%). For the same compound, the “TEAE incidence: Urine Ketone Body Present” value (Cilansetron 2 mg, N=1454) was 2 (<1%) n (%), the “TEAE incidence: Vascular Tests NEC (Incl Blood Pressure)” value (Cilansetron 2 mg, N=1454) was 7 (<1%) n (%) and the “TEAE incidence: Vasovagal Attack” value (Cilansetron 2 mg, N=1454) was 1 (<1%) n (%). For the same compound, the “TEAE incidence: Viraemia NOS Present” value (Cilansetron 2 mg, N=1454) was 3 (<1%) n (%), the “TEAE incidence: Vitamin Analyses” value (Cilansetron 2 mg, N=1454) was 1 (<1%) n (%) and the “TEAE incidence: Vitamin B12 Decreased” value (Cilansetron 2 mg, N=1454) was 1 (<1%) n (%). The “TEAE incidence: Vomiting NOS” value (Cilansetron 2 mg, N=1454) was 25 (2%) n (%), the “TEAE incidence: Weight Decreased” value (Cilansetron 2 mg, N=1454) was 3 (<1%) n (%) and the “TEAE incidence: Weight Increased” value (Cilansetron 2 mg, N=1454) was 13 (<1%) n (%). For the same compound, the “TEAE incidence: White Blood Cell Analyses” value (Cilansetron 2 mg, N=1454) was 25 (2%) n (%), the “TEAE incidence: White Blood Cell Count Decreased” value (Cilansetron 2 mg, N=1454) was 4 (<1%) n (%) and the “TEAE incidence: White Blood Cell Count Increased” value (Cilansetron 2 mg, N=1454) was 1 (<1%) n (%). The “TEAE incidence: White Blood Cells Urine” value (Cilansetron 2 mg, N=1454) was 3 (<1%) n (%), the “TEAE incidence: White Blood Cells Urine Positive” value (Cilansetron 2 mg, N=1454) was 2 (<1%) n (%) and the “TEAE incidence: abdominal pain NOS” value (Cilansetron 2 mg, N=1454) was 156 (11%) n (%). For the same compound, the “TEAE incidence: back pain” value (Cilansetron 2 mg, N=1454) was 40 (3%) n (%), the “TEAE incidence: constipation” value (Cilansetron 2 mg, N=1454) was 222 (15%) n (%) and the “TEAE incidence: flatulence” value (Cilansetron 2 mg, N=1454) was 38 (3%) n (%). The “TEAE incidence: flatulence, bloating and distension” value (Cilansetron 2 mg, N=1454) was 91 (6%) n (%), the “TEAE incidence: headache NOS” value (Cilansetron 2 mg, N=1454) was 100 (7%) n (%) and the “TEAE incidence: nasopharyngitis” value (Cilansetron 2 mg, N=1454) was 44 (3%) n (%). The “TEAE incidence: nausea” value (Cilansetron 2 mg, N=1454) was 78 (5%) n (%), the “TEAE incidence: nausea and vomiting symptoms” value (Cilansetron 2 mg, N=1454) was 92 (6%) n (%) and the “TEAE incidence: sinusitis NOS” value (Cilansetron 2 mg, N=1454) was 25 (2%) n (%). For the same compound, the “Total Number of Subjects with at Least One TEAE” value (Cilansetron 2 mg, N=1454) was 931 (64%) n (%), the “TEAE incidence: Female Reproductive Tract Infections*” value [1] was 4 (<1%) n (%) and the “TEAE incidence: Oophoritis*” value [1] was 1 (<1%) n (%). The “TEAE incidence: Pelvic Inflammatory Disease NOS*” value [1] was 1 (<1%) n (%), the “TEAE incidence: Vaginal Candidiasis*” value [1] was 5 (<1%) n (%) and the “TEAE incidence: Vaginitis*” value [1] was 2 (<1%) n (%). For the same compound, the “TEAE incidence: Vulvovaginitis Trichomonal*” value [1] was 1 (<1%) n (%), the “TEAEs that led to dose reduction” value (Study 3008) was 2% and the “TEAEs that led to permanent discontinuation of study medication” value (Study 3008) was “Thirteen”. The “overall incidence of TEAEs possibly, probably, or unlikely related to study medication” value (Study 3008) was 42%, the “severe TEAEs” value (Study 3008) was 9% and the “special interest TEAEs” value (Study 3008) was 54%. For the same compound, the “subjects with a treatment emergent SAE” value (Study 3008) was “Six”, the “subjects with at least one TEAE” value (Study 3008) was “Sixty-four” and the “withdrawal for AEs (combined categories)” value (Study 3008) was 13%. For the same compound, the “withdrawal for lack of efficacy (combined categories)” value (Study 3008) was 12%, the “Number of subjects who died” value (Study 3008) was 1 n and the “Primary reason for withdrawal: Adverse event and lack of efficacy” value (Study 3008) was 119 n. For the same compound, the “Primary reason for withdrawal: Baseline complaint/adverse event” value (Study 3008) was 75 n, the Number of deaths [2] was 1 (<1) n (%) and the “Number of subjects who permanently discontinued study medication due to a TEAE” value [2] was 192 (13) n (%). The “Number of subjects with at least one AE of special interest” value [2] was 789 (54) n (%), the “Number of subjects with at least one SAE” value [2] was 85 (6) n (%) and the “Number of subjects with at least one TEAE” value [2] was 931 (64) n (%). The “Number of subjects with at least one TEAE leading to dose reduction” value [2] was 34 (2) n (%), the “Number of subjects with at least one related TEAE” value [2] was 604 (42) n (%) and the “Number of subjects with at least one severe TEAE” value [2] was 138 (9) n (%). For the same compound, the “Number of subjects who died” value [3] was “(<1) %”, the “Primary reason for withdrawal: Adverse event and lack of efficacy” value [3] was “(8) %” and the “Primary reason for withdrawal: Baseline complaint/adverse event” value [3] was “(5) %”. The Acnes [4] was 2 (<1%) n (%), the “Affect Alterations NEC” value [4] was 2 (<1%) n (%) and the Alopecias [4] was 6 (<1%) n (%). For the same compound, the “Anxiety Disorders NEC (Incl Obsessive Compulsive Disorder)” value [4] was 1 (<1%) n (%), the “Anxiety Symptoms” value [4] was 26 (2%) n (%) and the “Apocrine and Eccrine Gland Disorders” value [4] was 8 (<1%) n (%). For the same compound, the “Appetite Disorders” value [4] was 15 (1%) n (%), the “Arthropathies NEC” value [4] was 6 (<1%) n (%) and the “Asthenic Conditions” value [4] was 38 (3%) n (%). For the same compound, the “Benign and Malignant Breast Neoplasms*” value [4] was 2 (<1%) n (%), the “Bladder Disorders NEC” value [4] was 1 (<1%) n (%) and the “Bladder and Urethral Symptoms” value [4] was 18 (1%) n (%). The “Breast Disorders NEC*” value [4] was 1 (<1%) n (%), the “Breast Signs and Symptoms*” value [4] was 4 (<1%) n (%) and the “Breathing Abnormalities” value [4] was 7 (<1%) n (%). The “Bronchospasm and Obstruction” value [4] was 10 (<1%) n (%), the “Bursal Disorders” value [4] was 1 (<1%) n (%) and the “Cardiac Conduction Disorders” value [4] was 4 (<1%) n (%). For the same compound, the “Cardiac Signs and Symptoms NEC” value [4] was 5 (<1%) n (%), the “Cartilage Disorders” value [4] was 1 (<1%) n (%) and the “Cervix Disorders NEC*” value [4] was 1 (<1%) n (%). For the same compound, the “Chest and Lung Injuries NEC” value [4] was 1 (<1%) n (%), the “Connective Tissue Disorders (Excl Le)” value [4] was 1 (<1%) n (%) and the “Coronary Artery Disorders NEC” value [4] was 2 (<1%) n (%). The “Coughing and Associated Symptoms” value [4] was 28 (2%) n (%), the “Depressive Disorders” value [4] was 28 (2%) n (%) and the “Dermal and Epidermal Conditions NEC” value [4] was 4 (<1%) n (%). For the same compound, the “Dermatitis and Eczema” value [4] was 16 (1%) n (%), the “Diabetes Mellitus (Incl Subtypes)” value [4] was 4 (<1%) n (%) and the “Dissociative States” value [4] was 1 (<1%) n (%). For the same compound, the “Disturbances in Initiating and Maintaining Sleep” value [4] was 20 (1%) n (%), the “Elevated Cholesterol” value [4] was 9 (<1%) n (%) and the “Elevated Triglycerides” value [4] was 8 (<1%) n (%). The “Erection and Ejaculation Conditions and Disorders*” value [4] was 2 (<1%) n (%), the Erythemas [4] was 1 (<1%) n (%) and the “Extremity Deformities” value [4] was 1 (<1%) n (%). For the same compound, the “Eye Injuries NEC” value [4] was 1 (<1%) n (%), the “Fear Symptoms” value [4] was 1 (<1%) n (%) and the “Febrile Disorders” value [4] was 20 (1%) n (%). For the same compound, the “Fluctuating Mood Symptoms” value [4] was 2 (<1%) n (%), the “Food Malabsorption and Intolerance Syndromes (Excl Sugar Intolerance)” value [4] was 1 (<1%) n (%) and the “General Nutritional Disorders NEC” value [4] was 3 (<1%) n (%). For the same compound, the “General Signs and Symptoms NEC” value [4] was 14 (<1%) n (%), the “Heart Failure Signs and Symptoms” value [4] was 1 (<1%) n (%) and the “Hyperglycaemic Conditions NEC” value [4] was 4 (<1%) n (%). The “Hyperlipidaemias NEC” value [4] was 3 (<1%) n (%), the “Increased Physical Activity Levels” value [4] was 1 (<1%) n (%) and the “Intervertebral Disc Disorders NEC” value [4] was 3 (<1%) n (%). The “Ischaemic Coronary Artery Disorders” value [4] was 7 (<1%) n (%) and the “Joint Related Signs and Symptoms” value [4] was 31 (2%) n (%).
